Test results as given in patent US20130217722A1, “NOVEL COMPOUND USEFUL FOR THE TREATMENT OF DEGENERATIVE AND INFLAMMATORY DISEASES” (priority 2012, published 2013).

Target: T1, Recombinant human TYK2 catalytic domain (Homo sapiens, UniProt P29597)
T1 construct: Recombinant human TYK2 catalytic domain (amino acids 871-1187; catalog number 08-147) was purchased from Carna biosciences; purchased Carna Biosciences 08-147
T1 sequence (P29597 871-1187): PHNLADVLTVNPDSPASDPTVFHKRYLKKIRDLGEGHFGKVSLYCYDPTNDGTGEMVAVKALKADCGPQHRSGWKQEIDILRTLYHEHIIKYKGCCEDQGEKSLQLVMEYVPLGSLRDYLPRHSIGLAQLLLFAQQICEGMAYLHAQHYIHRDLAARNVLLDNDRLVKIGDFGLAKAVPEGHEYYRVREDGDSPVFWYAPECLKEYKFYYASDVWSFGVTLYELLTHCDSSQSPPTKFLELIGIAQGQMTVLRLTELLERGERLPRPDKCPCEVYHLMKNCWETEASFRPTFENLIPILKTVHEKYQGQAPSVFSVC
Experiment: TYK2 inhibition assay (polyGT substrate)
Assay type: biochemical
Method: Recombinant human TYK2 catalytic domain (amino acids 871-1187; catalog number 08-147) was purchased from Carna biosciences. 5 ng of TYK2 was incubated with 12.5 μg polyGT substrate (Sigma catalog number P0275) in kinase reaction buffer (25 mM Hepes pH 7.2, 50 mM NaCl, 0.5 mM EDTA, 1 mM DTT, 5 mM MnCl2, 10 mM MgCl2, 0.1% Brij-35, 0.1 μM non-radioactive ATP, 0.125 μCi ^33P-gamma-ATP (GE Healthcare, catalog number AH9968) final concentrations) with or without 5 μL containing test compound or vehicle (DMSO, 1% final concentration), in a total volume of 25 μL, in a polypropylene 96-well plate (Greiner, V-bottom). After 90 min at 30° C., reactions were stopped by adding 25 μL/well of 150 mM phosphoric acid. […] 40 ^μL/well of Microscint-20 was added, the top of the plates was sealed and readout was performed using the Topcount (Perkin Elmer). Kinase activity was calculated by subtracting counts per min (cpm) obtained in the presence of a positive control inhibitor (10 μM staurosporine) from cpm obtained in the presence of vehicle. The ability of a test compound to inhibit this activity was determined as:
Percentage inhibition=((cpm determined for sample with test compound present−cpm determined for sample with positive control inhibitor) divided by (cpm determined in the presence of vehicle−cpm determined for sample with positive control inhibitor))*100. […]

JAK1 selectivity vs TYK2: 9 fold
Compound: CCc1cc(C2=CCN(C(=O)CC#N)CC2)ccc1N(C)c1cc2c(cn1)ncn2C [Compound 1]
